{"source": "patent EP4385495A1", "about": "“NANOSYSTEMS FOR THE ENCAPSULATION OF THERAPEUTIC AGENTS” (National Technical University of Athens, priority 2022, dated 2024)", "test_system": "MMP-13", "assay": "MMP-13 ELISA in secretions of TNFα-stimulated chondrocytes", "format": "cell-based, human", "conditions": "for Mean % relative MMP-13 secretion (72h): co-treatment with TNFα, normalized to negative control (TNFα only)", "text": "Matrix Mettaloproteinase 13 (MMP-13) is the main culprit in the destabilization of the anabolic/catabolic balance in the articular joint. MMP-13 […] balance towards catabolism and collagen II degradation which aggravates the OA pathology and is an enzyme that is secreted by chondrocytes in the extracellular environment. […] A decrease in MMP-13 levels is desirable, correlates with less degradation of cartilage and is widely used in the OA research field as a histopathological marker to evaluate amelioration of OA cellular pathology in the joint following an intervention. Finding Nanoparticles that can reduce MMP-13 levels in the assay is a promising lead for a favorable effect in a pre-clinical animal model in vivo. […] The results in Table 6 are the mean relative values from at least 3 independent repetitions of the experiments. Table 6. MMP-13 ELISA results as normalized values relative to negative control (NC, TNFα-stimulated cells without nanosystems) from 3 independent experiments. The standard deviations are omitted for simplicity. Samples' coding: S1=Naringin pure compound, S2=Naringin encapsulated in PLA nanoparticles [PLA[NAR]], S3=Naringin encapsulated in PLA nanoparticles coated with chitosan CS[PLA[NAR]], and S4=Blank PLA nanoparticles coated with chitosan, CS[PLA[---]]."}
{"smiles": "C[C@@H]1O[C@@H](O[C@H]2[C@H](Oc3cc(O)c4c(c3)O[C@H](c3ccc(O)cc3)CC4=O)O[C@H](CO)[C@@H](O)[C@@H]2O)[C@H](O)[C@H](O)[C@H]1O", "note": "[S1 [NAR], Naringin]", "values": [{"measurement": "Mean % relative MMP-13 secretion (72h)", "setting": "10 µM Naringin (free or encapsulated)", "value": "110,57%"}, {"measurement": "Mean % relative MMP-13 secretion (72h)", "setting": "50 µM Naringin (free or encapsulated)", "value": 113.28, "unit": "%"}, {"measurement": "Mean % relative MMP-13 secretion (72h)", "setting": "200 µM", "value": "102,77%"}, {"measurement": "decrease in MMP-13 (in words)", "setting": "TNFα-stimulated chondrocytes", "value": "did not give a detectable decrease"}]}
